In patent US8361929B2, “Method of restoring male sterility in gramineous plants and male sterility restorative agent” (Tohoku University, priority 2009, dated 2013):
“Also recorded” adds a separate entry of the source.

Assays:
Assay type in all cases: in vivo
[1] = tested on: barley (Hordeum vulagare L. cv Haruna-nijo); assay: Anther length at heading stage after spreading auxin aqueous solutions; details: control groups (suitable temperature cultivation); 10^−6 M, 10^−5 M or 10^−4 M
From the text: (§1) In an experiment to verify the effect of an auxin, the above-described nursery soil for horticultural was used. In addition, to facilitate the control of an auxin aqueous solution treatment, each pair of two rectangular planter boxes (60 mm×60 mm×100 mm (length×width×height), AGC TECHNO GLASS CO., LTD., Plant Box (Model No. CUL-JAR300)) were vertically stacked on each other. A hole having a diameter of about 1 cm was formed at the bottom center of the upper box. A 6-cm wick for an alcohol lamp with a knot was passed through the hole. Then, 300 ml of vermiculite (NITTAI Co., Ltd., vermiculite for agricultural and horticultural use) was packed thereabove. In the lower box, 0.2% (v/v) of HYPONEX (HYPONeX JAPAN CORP., LTD.) was placed as a nutrient water source for plants. Seeds of Hordeum vulagare L. cv Haruna-nijo having been stored in the dark at 4° C. were stimulated to germinate in the dark at 25° C. for 48 hours. The germinated seeds were sown at four seeds per pot at the four corners of the upper container. These sown seeds were grown in an artificial climate chamber (Nippon Medical & Chemical Instruments Co., Ltd., BIOTRON LH300RDS) under conditions of 20° C. during the day, 15° C. at night, and a 16-hour photoperiod. As the light source, 20 plant growing fluorescent tubes were used (16 tubes; National FL40S FR-P, and 4 tubes; National, FL20S FR-P).
(§2) Also in this cultivation method, the fifth leaves emerge and start to develop on Day 18 or 19 after the sowing as in the case where the culture soil was used, where the day of the sowing is regarded as Day 0. The plants were cultivated under high-temperature conditions of 30° C. during the day, 25° C. at night, and a 16-hour photoperiod from Day 19 after the sowing. Thus, a high-temperature treatment was conducted for five days (120 hours). Thereafter (on Day 24 after the sowing), the conditions were changed back to the normal conditions of 20° C. during the day, 15° C. at night, and a 16-hour photoperiod. […]

[2] = tested on: barley (Hordeum vulagare L. cv Haruna-nijo); assay: Pollen maturity, potassium iodide staining of anthers; details: control groups (suitable temperature cultivation); 10^−6 M, 10^−5 M or 10^−4 M
From the text: as §1, §2

[3] = tested on: barley (Hordeum vulagare L. cv Haruna-nijo); assay: Seed fertility (seeds produced in panicles) after auxin spreading; details: for seeds produced in panicles: high-temperature treated groups, 10^−4 M
From the text: as §1, §2

[4] = tested on: barley (Hordeum vulagare L. cv Haruna-nijo); assay: Side effects of spread auxin on the plants (leaf withering)
From the text: as §1
Also in this cultivation method, the fifth leaves emerge and start to develop on Day 18 or 19 after the sowing as in the case where the culture soil was used, where the day of the sowing is regarded as Day 0. The plants were cultivated under high-temperature conditions of 30° C. during the day, 25° C. at night, and a 16-hour photoperiod from Day 19 after the sowing. Thus, a high-temperature treatment was conducted for five days (120 hours). Thereafter (on Day 24 after the sowing), the conditions were changed back to the normal conditions of 20° C. during the day, 15° C. at night, and a 16-hour photoperiod.
First, 10^−3 M, 10^−2 M, and 10^−1 M stock solutions in dimethyl sulfoxide (DMSO: Wako Pure Chemical Industries, Ltd., Production Code: 043-07216) were prepared by using each of indole-3-acetic acid (IAA: Wako Pure Chemical Industries, Ltd., Production Code: 94-00183), 1-naphthyl acetic acid (NAA: Wako Pure Chemical Industries, Ltd., Production Code: 148-00092), and 2,4-dichlorophenoxyacetic acid (2,4-D: Wako Pure Chemical Industries, Ltd., Production Code: 040-18532). The stock solutions were stored in the dark at −20° C. until used. These stock solutions were thawed immediately before spread, and each were diluted 1000-fold with distilled water. Thus, solutions were prepared at three levels of 10^−6 M, 10^−5 M, and 10^−4 M, and used as auxin aqueous solutions. […]

[5] = high-temperature treated samples, 10^−4 M

Row | SMILES | change of anther length at heading stage [1] | pollen formation [2] | seeds produced in panicles [3] [%] | seed fertility restoration (FIG. 10) ([3]; individual of high-temperature treated group, spread at 10^−4 M) | negative effect / side effects on the plants [4, 5] | negative effect on the plants (leaves) ([4]; control groups (suitable temperature cultivation), 10^−4 M) | negative effect / side effects on the plants ([4]; in vivo)
1 | O=C(O)Cc1cccc2ccccc12 [NAA, 1-naphthyl acetic acid] | change was hardly observed | formed normally | ~90 | seed fertility restoration | side effects were hardly observed |  | 
2 | O=C(O)COc1ccc(Cl)cc1Cl [2,4-D, 2,4-dichlorophenoxyacetic acid] | change was hardly observed | formed normally |  |  | leaves started to wither at an early stage; also recorded: withering up at the early stage | leaves stared to wither at an early stage | 
3 | O=C(O)Cc1c[nH]c2ccccc12 [IAA, indole-3-acetic acid] | change was hardly observed | formed normally | ~90 |  |  |  | side effects were hardly observed
